Experimental data reported in patent US7919680B2, “Nucleic acids encoding anthelmintic agents and plants made therefrom” (Divergence, Inc., priority 2004, dated 2011).

Tests used:
C. elegans [1] = test: Nematicidal activity of methyl ester, salt and free fatty acid emulsions vs. C. elegans N2s (Table 3); type: in vivo, Caenorhabditis elegans
Text: Nematicidal Activity of Single Fatty Acid Methyl Ester, Salt and Free Fatty Acid Emulsions Against Caenorhabditis elegans […] and Dauers

C. elegans dauers = test: Nematicidal activity of methyl ester, salt and free fatty acid emulsions vs. C. elegans dauers (Table 4); type: in vivo, Caenorhabditis elegans
C. elegans [2] = test: Rescue of delta-12 fat2 RNAi feeding phenotype by fatty acid methyl esters; type: in vivo; settings: for rescue of the delta-12 fat2 RNAi feeding phenotype: 3 mM added to NGM media
Text: RNAi by feeding: C. elegans can be grown on lawns of E. coli genetically engineered to produce double stranded RNA (dsRNA) designed to inhibit delta-12 fat2 expression. Briefly, E. coli were transformed with a genomic fragment of a portion of the C. elegans fat2 gene sequence, specifically a fragment 651 nucleotides long, containing the entire first exon and terminating just before the conserved intron splice junction between the first exon and first intron. This construct encodes approximately the first 217 amino acids of the C. elegans delta-12 fat2 gene. The 651 nucleotide genomic fragment was cloned into an E. coli expression vector between opposing T7 polymerase promoters. The clone was then transformed into a strain of E. coli that carries an IPTG-inducible T7 polymerase. As a control, E. coli was transformed with a gene encoding the Green Fluorescent Protein (GFP). Feeding RNAi was initiated from C. elegans eggs or from C. elegans L4s. […] The sequence of the fat2 gene is of sufficiently high complexity (i.e., unique) such that the RNAi is not likely to represent cross reactivity with other genes.
The C. elegans delta-12 fatty acid desaturase (FAT-2 protein) converts the mono-unsaturated oleic acid to the di-unsaturated fatty acid linoleic acid. The delta-12 fat2 RNAi prevents expression of the delta-12 fatty acid desaturase, which is predicted to cause a decrease in levels of linoleic acid in the nematode, leading to arrested development and death.

C. elegans [3] = test: Nematicidal activity of fatty acid methyl ester emulsions against C. elegans (Table 2)
tomato seedlings = test: Phytotoxicity evaluation of fatty acid methyl esters on tomato seedlings; type: in vivo; settings: for phytotoxic effects on tomato seedlings: 250 μl of 1% emulsion at stem-media interface of two-week seedlings
Experimental: Sterilized tomato seeds were germinated in magenta jars containing Gamborg's agar media. After two weeks of growth, seedlings were treated with 250 μl of 1% fatty acid methyl ester emulsion (nonanoic acid, ricinoleic acid, ricinelaidic acid, oleic acid, or a control emulsion lacking any fatty acid), applied directly to the stem-media interface. Tomato seedlings were scored at various times after application of emulsions.

C. elegans [4] = test: Nematicidal activity of fatty acid methyl ester emulsions, nematode spectrum (Table 6); type: in vivo, Caenorhabditis elegans; settings: C. elegans mixed stage
Experimental: (§1) Briefly, the indicated fatty acid emulsions were added to nematodes in wells of a 24-well plate and rapidly mixed by swirling. […] Results shown are mean % values obtained from multiple independent experiments
(§2) The Caenorhabditis elegans were mixed stage populations. Similar effects were seen on several other free-living nematode species. The Parastrongyloides trichosuri (parasite of Australian bushtail possum) were dauer-like infective 3rd stage larva. Similar effects are also seen against free-living stages. The Meloidogyne incognita and Meloidogyne javanica (root knot nematode) were 2nd stage juveniles (dauer-like infective stage). The Heterodera glycines (soybean cyst nematode) were 2nd stage juveniles (dauer-like infective stage). Finally, the Pratylenchus scribneri (corn lesion nematode) were mixed stage populations.

P. trichosuri = test: as above; type: in vivo, Parastrongyloides trichosuri; settings: P. trichosuri infective 3rd stage larva
Experimental: as §1, §2

M. incognita [5] = test: as above; type: in vivo, Meloidogyne incognita; settings: M. incognita 2nd stage juveniles, head 24 hr, b171 48 hours
Experimental: as §1, §2

M. javanica [6] = test: as above; type: in vivo, Meloidogyne javanica; settings: M. javanica 2nd stage juveniles, head 24 hr, b171 48 hours
Experimental: as §1, §2

H. glycines = test: as above; type: in vivo, Heterodera glycines; settings: H. glycines 2nd stage juveniles, head 24 hr, b171 48 hours
Experimental: as §1, §2

P. scribneri = test: as above; type: in vivo, Pratylenchus scribneri; settings: P. scribneri mixed stage
Experimental: as §1, §2

[7] = tested on: wide spectrum of divergent nematode genera; test: Summary of Table 6: free-living, animal parasitic and plant parasitic nematodes; type: in vivo
Experimental: as §1

M. incognita [8] = test: Nematicidal activity of fatty acid methyl ester emulsions against root knot nematode J2 larvae (Table 5); type: in vivo; settings: 0.1% emulsion; 48 hours incubation, counted about 24 hours after transfer to plates
Experimental: (§3) M. incognita and M. javanica were prepared from tomato roots. The roots were bleached and the debris was separated from the J2 larvae and eggs by filtration followed by sucrose density gradient centrifugation. Eggs were hatched over 4 days at 15° C. and the J2 larvae were collected by passage though a filter, followed by centrifugation.
(§4) Nematodes and emulsions were incubated with shaking at room temperature for 48 hours. The contents of each well were transferred to a small spot on individual NGM plates lacking bacteria. About 24 hours after the transfer to plates, worms on and off the inoculation spot were counted as not viable or viable, respectively. Worms were considered viable if they had crawled away from the inoculation spot, or if they were moving. Worms were considered non-viable if they remained at the inoculation spot.

M. javanica [9] = test: as above; type: in vivo; settings: 0.1% emulsion; 48 hours incubation, counted about 24 hours after transfer to plates
Experimental: as §3, §4

## CCCCCC[C@@H](O)C/C=C\CCCCCCCC(=O)[O-].[K+] [Potassium R, potassium salt of ricinoleic acid]
C. elegans [1]; 0.001% emulsion
  worm death: 5%
C. elegans [1]; 0.01% emulsion
  worm death: 15%
C. elegans [1]; 0.1% emulsion
  worm death: 90%
C. elegans dauers; 0.01% emulsion
  worm death: 20%
C. elegans dauers; 0.1% emulsion
  worm death: 75%

## CCCCCCCC/C=C\CCCCCCCC(=O)OC [Oleic Acid (C18-methyl ester), oleic acid methyl ester]
C. elegans [2]
  rescue of the delta-12 fat2 RNAi feeding phenotype: does not rescue
C. elegans [3]; 0.003% emulsion
  Percentage of Worm Death 1 hr: 0-5%
  Percentage of Worm Death 6 hr: 0-5%
  Percentage of Worm Death 24 hr: 0-5%
C. elegans [3]; 0.1% emulsion
  Percentage of Worm Death 1 hr: 0-5%
  Percentage of Worm Death 6 hr: 0-5%
  Percentage of Worm Death 24 hr: 0-5%

## CCCCCC[C@@H](O)C/C=C/CCCCCCCC(=O)OC [Re ME, ricinelaidic acid methyl ester]
C. elegans [1]; 0.001% emulsion
  worm death: 80%
C. elegans [1]; 0.01% emulsion
  worm death: 100%
C. elegans [1]; 0.1% emulsion
  worm death: 100%
C. elegans dauers; 0.01% emulsion
  worm death: 100%
C. elegans dauers; 0.1% emulsion
  worm death: 100%
Tomato seedlings
  phytotoxic effects on tomato seedlings: low phytotoxicity
C. elegans [4]; 0.001% solution
  % Worm Death (24 hr): 75%
C. elegans [4]; 0.01% solution
  % Worm Death (24 hr): 100%
C. elegans [4]; 0.1% solution
  % Worm Death (24 hr): 100%
P. trichosuri; 0.01% solution
  % Worm Death (24 hr): 100%
P. trichosuri; 0.1% solution
  % Worm Death (24 hr): 100%
M. incognita [5]; 0.001% solution
  % Worm Death (24 hr): 97%
M. incognita [5]; 0.01% solution
  % Worm Death (24 hr): ~99%
M. incognita [5]; 0.1% solution
  % Worm Death (24 hr): ~99%
M. javanica [6]; 0.001% solution
  % Worm Death (24 hr): ~60%
M. javanica [6]; 0.01% solution
  % Worm Death (24 hr): 100%
M. javanica [6]; 0.1% solution
  % Worm Death (24 hr): 100%
H. glycines; 0.001% solution
  % Worm Death (24 hr): 100%
H. glycines; 0.01% solution
  % Worm Death (24 hr): 100%
H. glycines; 0.1% solution
  % Worm Death (24 hr): 100%
P. scribneri; 0.01% solution
  % Worm Death (24 hr): ~40%
P. scribneri; 0.1% solution
  % Worm Death (24 hr): ~70%
[7]; concentrations of 0.1% and 0.01%
  nematicidal activity: strongly nematicidal
[7]; summary of Table 6
  breadth of nematicidal activity: favorable nematicidal activity against a wide spectrum of divergent nematode genera

## CCCCCC[C@@H](O)C/C=C/CCCCCCCC(=O)[O-].[Na+] [Sodium Re*, sodium salt of ricinelaidic acid]
C. elegans [1]; 0.01% emulsion
  worm death: 100%
C. elegans [1]; 0.1% emulsion
  worm death: 100%

## CCCCCCCCC(=O)OC [Nonanoic (C9-methyl ester), pelargonic acid methyl ester]
C. elegans [1]; 0.001% emulsion
  worm death: 30%
C. elegans [1]; 0.01% emulsion
  worm death: 100%
C. elegans [1]; 0.1% emulsion
  worm death: 100%
Tomato seedlings; 250 μl of 1% emulsion
  time to almost entire bleaching and near total collapse: ≤ 24 h
Tomato seedlings
  phytotoxic effects on tomato seedlings: obvious phytotoxic effects
C. elegans [3]; 0.003% emulsion
  Percentage of Worm Death 1 hr: 50%
  Percentage of Worm Death 6 hr: 50%
  Percentage of Worm Death 24 hr: 50%
C. elegans [3]; 0.003% emulsion, many nematodes recover several hours post inoculation
  "stun" effect: temporarily “stunned”
C. elegans [3]; 0.1% emulsion
  Percentage of Worm Death 1 hr: 100%
  Percentage of Worm Death 6 hr: 100%
  Percentage of Worm Death 24 hr: 100%
C. elegans [3]; concentration of 0.1%
  nematicidal activity: strongly nematicidal
C. elegans [3]; emulsion, Table 2
  onset of effect on nematode movement and death: almost immediate cessation of nematode movement and subsequent death

## CCCCC/C=C\C/C=C\CCCCCCCC(=O)OC [Linoleic Acid (C18-methyl ester), linoleic acid methyl ester]
C. elegans [2]
  rescue of the delta-12 fat2 RNAi feeding phenotype: partial rescue
C. elegans [2]; fat2 RNAi feeding starting with L4 larvae, 3 mM fatty acid methyl ester in NGM media
  P0 phenotype: Reduced egg laying
C. elegans [1]; 0.001% emulsion
  worm death: <5%
C. elegans [1]; 0.01% emulsion
  worm death: <5%
C. elegans [1]; 0.1% emulsion
  worm death: <5%
C. elegans dauers; 0.01% emulsion
  worm death: 20%
C. elegans dauers; 0.1% emulsion
  worm death: 40%
C. elegans [3]; 0.003% emulsion
  Percentage of Worm Death 1 hr: 0-5%
  Percentage of Worm Death 6 hr: 0-5%
  Percentage of Worm Death 24 hr: 0-5%
C. elegans [3]; 0.1% emulsion
  Percentage of Worm Death 1 hr: 0-5%
  Percentage of Worm Death 6 hr: 0-5%
  Percentage of Worm Death 24 hr: 0-5%

## CCCCCC[C@@H](O)C/C=C/CCCCCCCC(=O)O [Re free acid*, ricinelaidic acid]
C. elegans [1]; 0.001% emulsion
  worm death: 40%
C. elegans [1]; 0.01% emulsion
  worm death: 98%
C. elegans [1]; 0.1% emulsion
  worm death: 100%
C. elegans dauers; 0.01% emulsion
  worm death: 75%
C. elegans dauers; 0.1% emulsion
  worm death: 75%

## CCCCCC1OC1C/C=C\CCCCCCCC(=O)OC (stereo in doubt) [Vernolic Acid (C18-methyl ester), vernolic acid methyl ester]
M. incognita [8]
  M. incognita (% not viable): 100%
M. javanica [9]
  M. javanica (% not viable): 90%
C. elegans [4]; 0.001% solution
  % Worm Death (24 hr): 30%
C. elegans [4]; 0.01% solution
  % Worm Death (24 hr): 50%
C. elegans [4]; 0.1% solution
  % Worm Death (24 hr): 80%
P. trichosuri; 0.01% solution
  % Worm Death (24 hr): ~90%
P. trichosuri; 0.1% solution
  % Worm Death (24 hr): ~95%
M. incognita [5]; 0.01% solution
  % Worm Death (24 hr): 73%
M. incognita [5]; 0.1% solution
  % Worm Death (24 hr): 98%
M. javanica [6]; 0.01% solution
  % Worm Death (24 hr): 60%
M. javanica [6]; 0.1% solution
  % Worm Death (24 hr): 90%
H. glycines; 0.001% solution
  % Worm Death (24 hr): 18%
H. glycines; 0.01% solution
  % Worm Death (24 hr): 20%
H. glycines; 0.1% solution
  % Worm Death (24 hr): 30%
P. scribneri; 0.01% solution
  % Worm Death (24 hr): <20%
P. scribneri; 0.1% solution
  % Worm Death (24 hr): <20%
C. elegans [3]; 0.003% emulsion
  Percentage of Worm Death 1 hr: 20%
  Percentage of Worm Death 6 hr: 20%
  Percentage of Worm Death 24 hr: 20%
C. elegans [3]; 0.1% emulsion
  Percentage of Worm Death 1 hr: 65%
  Percentage of Worm Death 6 hr: 65%
  Percentage of Worm Death 24 hr: 75%

## CCCCC/C=C\C/C=C\CCCCCCCC(=O)O [L free acid, linoleic acid, reference compound]
C. elegans [1]; 0.001% emulsion
  worm death: <5%
C. elegans [1]; 0.01% emulsion
  worm death: <5%
C. elegans [1]; 0.1% emulsion
  worm death: 10%
C. elegans dauers; 0.01% emulsion
  worm death: 40%
C. elegans dauers; 0.1% emulsion
  worm death: 50%
